Measured values published in patent publication US20230354862A1, “ANTI-DIABETIC COMPOSITION CONTAINING BEET MIXTURE AS ACTIVE INGREDIENT” (BAE RYEO INNOVATION CO., LTD., priority 2021, published 2023).

What was measured:
[1] = system: db/db mice; test: Glycated hemoglobin (HbA1c) analysis in type 2 diabetes model; type: in vivo, mouse; conditions: after 3 weeks, 300 mg/kg metformin (Met 300)
From the text: (§1) As experimental animals, 5-week-old specific-pathogen free (SPF) male db/db mice were obtained from Central Laboratory Animal, Inc. (Seoul, Korea), and acclimated for 1 week before use in the experiment. As an experimental food, normal mouse feed (Purina Lab Rodent Chow #38057, Purina Co., Seoul Korea) was fed, and during the acclimatization period, filtered water was replaced with fresh one daily and the animals were allowed access ad libitum to water. During the breeding period, the animals were kept under the following conditions: temperature, 23±1° C.; humidity, 50±5%; noise, 60 phone or less; lighting time, 08:00 to 20:00 (12 hours a day); illumination, 150 to 300 Lux; 10 to 12 ventilations per hour. This experiment was conducted in compliance with the Animal Experimental Ethics Regulations.
(§2) After completion of the acclimatization period, the experimental animals were divided into groups using the randomized block design based on fasting blood glucose that the mean values between the groups were uniform, and then the animals were marked using an ear punch. […]
(§3) All experimental results were calculated as mean±standard error (S.E.) using SPSS ver. […]

[2] = system: db/db mice; test: Tissue weight analysis in type 2 diabetes model; type: in vivo, mouse; conditions: 300 mg/kg metformin (Met 300)
From the text: as §1
(§4) After completion of the acclimatization period, the experimental animals were divided into groups using the randomized block design based on fasting blood glucose that the mean values between the groups were uniform, and then the animals were marked using an ear punch. The animals were divided into a normal group, a control group, a group to which 10 mg/kg of the beet mixture was administered (10 mg/kg Beta vulgaris mixture group), a group to which 30 mg/kg of the beet mixture was administered (30 mg/kg Beta vulgaris mixture group), a group to which 30 mg/kg of the beet mixture was administered (30 mg/kg Beta vulgaris mixture group), and a positive control group (300 mg/kg metformin), each consisting of 8 animals. Each sample was orally administered 5 times a week for 3 weeks.
(§5) Weekly body weight and blood sugar level were all measured once a week at a certain time, and food intake and water intake were measured the next day after feeding certain amounts of food and water once a week. Weekly blood glucose levels were measured using blood collected from the caudal veins using a blood glucose meter (AutoCheck, Diatech Korea) at a certain time every week. For autopsy, blood was collected from the abdominal vena cava after inhalation anesthesia and used for blood analysis, and the liver, epididymal fat, pancreas, and kidney were harvested and weighed.
(§6) All experimental results were calculated as mean±standard error (S.E.) using SPSS ver. 12.0 (SPSS Inc., Chicago, IL, USA). Statistically significant differences between experimental groups were tested using a one-way analysis of variance test (ANOVA), and in case of significance (p<0.05), a post-test was performed with the Duncan's multiple range test.

[3] = system: db/db mice; test: Weekly biomarker analysis in type 2 diabetes model (body weight, food and water intake, blood glucose); type: in vivo, mouse; conditions: 300 mg/kg metformin (Met 300)
From the text: as §1, §4
as §5, with “For autopsy, blood was collected from the abdominal vena cava after inhalation anesthesia and used for blood analysis, and the liver, epididymal fat, pancreas, and kidney were harvested and weighed.” left out
as §3

[4] = system: db/db mice; test: Hematological (serum) analysis in type 2 diabetes model; type: in vivo, mouse; conditions: 300 mg/kg metformin (Met 300)
From the text: as §1, §4, §5
Blood was collected from the abdominal vena cava, placed in conical tubes, coagulated for 30 minutes at room temperature, and then centrifuged at 3,000 rpm for 10 minutes. Analysis of blood fructosamine, TC, TG, LDL-C, HDL-C, and VLDL levels were performed by KPNT (Cheongju, Korea), and insulin analysis was performed using an ELISA kit (Crystalchem, USA). HOMA-IR and HOMA-beta levels were calculated based on the blood analysis results.
as §6

[5] = system: db/db mice; test: Oral glucose tolerance test in type 2 diabetes model; type: in vivo, mouse; conditions: 300 mg/kg metformin (Met 300)
From the text: as §1, §2, §3

[6] = system: db/db mice; test: Histological analysis of β-cell area (insulin immunostaining of pancreas); type: in vivo, mouse; conditions: 300 mg/kg metformin (Met 300)
From the text: as §1, with “Regulations. […]” for “Regulations.”
Analysis of the islets of Langerhans in the pancreatic tissue was performed by immunostaining. […] After washing twice with TBST buffer for 5 min, samples were reacted with 2.5% normal goat serum for blocking (Vector, USA) for 20 min, and then the blocking reagent and working insulin antibody (Cell Signaling, MA, USA) solution (2 to 10 μl of antibody to 1 ml of Ready-To-Use 2.5% normal goat serum for blocking) was reacted at 4° C. overnight. […]
as §3

[7] = system: SD rats; test: Oral sucrose tolerance test (OSTT); type: in vivo, rat; conditions: 3 mg/kg acarbose (A 3)
Description: As an experimental food, normal mouse feed (Purina Lab Rodent Chow #38057, Purina Co., Seoul Korea) was fed, and during the acclimatization period, filtered water was replaced with fresh one and the animals were allowed access ad libitum to water. During the breeding period, the animals were kept under the following conditions: temperature, 23±1° C.; humidity, 50±5%; noise, 60 phone or less; lighting time, 08:00 to 20:00 (12 hours a day); illumination, 150 to 300 Lux; 10 to 12 ventilations per hour. This experiment was conducted in compliance with the Animal Experimental Ethics Regulations. After completion of the acclimatization period, the experimental animals were divided into groups using the randomized block design based on fasting blood glucose that the mean values between the groups were uniform, and then the animals were marked using an ear punch. The animals were divided into a normal group, a control group, a group to which 10 mg/kg of the beet mixture was administered (10 mg/kg Beta vulgaris mixture group), a group to which 30 mg/kg of the beet mixture was administered (30 mg/kg Beta vulgaris mixture group), a group to which 30 mg/kg of the beet mixture was administered (30 mg/kg Beta vulgaris mixture group), and a positive control group (3 mg/kg acarbose), each consisting of 8 animals. Using these groups, an oral sucrose tolerance test (OSTT) and an oral starch tolerance test (OATT) were conducted. […] Changes in blood glucose levels in each group were analyzed based on the measured blood glucose levels. All experimental results were calculated as mean±standard error (mean±S.E.) using the statistical program (SPSS ver. 12.0, SPSS Inc., Chicago, IL, USA). Statistically significant differences between experimental groups were tested using a one-way analysis of variance test (ANOVA), and in case of significance (p<0.05), a post-test was performed with the Duncan's multiple range test.

[8] = system: SD rats; test: Oral starch tolerance test (OATT); type: in vivo, rat
Description: As an experimental food, normal mouse feed (Purina Lab Rodent Chow #38057, Purina Co., Seoul Korea) was fed, and during the acclimatization period, filtered water was replaced with fresh one and the animals were allowed access ad libitum to water. During the breeding period, the animals were kept under the following conditions: temperature, 23±1° C.; humidity, 50±5%; noise, 60 phone or less; lighting time, 08:00 to 20:00 (12 hours a day); illumination, 150 to 300 Lux; 10 to 12 ventilations per hour. This experiment was conducted in compliance with the Animal Experimental Ethics Regulations. After completion of the acclimatization period, the experimental animals were divided into groups using the randomized block design based on fasting blood glucose that the mean values between the groups were uniform, and then the animals were marked using an ear punch. […] Changes in blood glucose levels in each group were analyzed based on the measured blood glucose levels. All experimental results were calculated as mean±standard error (mean±S.E.) using the statistical program (SPSS ver. 12.0, SPSS Inc., Chicago, IL, USA). […]

For CN(C)C(=N)N=C(N)N [metformin], the HbA1c level [1] was 6.79±0.29%, the kidney tissue weight ([2]; after 3 weeks) was 0.303 ± 0.008 g and the liver tissue weight ([2]; after 3 weeks) was 1.97 ± 0.06 g. The “epididymal fat tissue weight” value ([2]; at autopsy) was 1.761 ± 0.038 g, the pancreatic tissue weight ([2]; at autopsy) was 0.116 ± 0.005 g and the “blood glucose level at 1 week after sample administration” value [3] was 167.0 ± 19.1 mg/dL. The “blood glucose level at 3 weeks after sample administration” value [3] was 238.8 ± 21.9 mg/dL, the “body weight at week 3” value [3] was 34.04 ± 0.35 g and the “HOMA-IR level (insulin resistance)” value [4] was 0.975±0.199. The “HOMA-β level (insulin secretion ability)” value [4] was 6.863±0.404, the “serum HDL cholesterol level” value [4] was 105.09 ± 2.63 mg/dL and the serum fructosamine level [4] was 319.13 ± 10.89 µmol/L. The “serum total cholesterol level” value [4] was 126.50 ± 2.24 mg/dL, the LDL cholesterol level ([4]; after 3 weeks) was 12.94 ± 0.84 mg/dL and the serum insulin level ([4]; after 3 weeks) was 12.94 ± 0.84 ng/mL. For the same molecule, the serum triglyceride level ([4]; after 3 weeks) was 236.13 ± 11.87 mg/dL, the “blood glucose level at 30 min after oral glucose administration” value [5] was 382.0 ± 31.0 mg/dL and the “change in blood glucose level after glucose administration (OGTT AUC)” value [5] was 778.06 ± 262.53 mg/dL. For the same molecule, the β-cell area [6] was 83242.23±11320.56 μm^2.

C[C@H]1O[C@H](O[C@H]2[C@H](O)[C@@H](O)[C@@H](O[C@H]3[C@H](O)[C@@H](O)C(O)O[C@@H]3CO)O[C@@H]2CO)[C@H](O)[C@@H](O)[C@@H]1N[C@H]1C=C(CO)[C@@H](O)[C@H](O)[C@H]1O (stereo partly drawn) [acarbose] was tested, and the “blood glucose level at 30 min after sucrose administration” value [7] was 95.88 ± 3.20 mg/dL, the “blood glucose level at 120 min after sucrose administration” value [7] was 80.38 ± 1.76 mg/dL and the “change in blood glucose level after sucrose administration (AUC)” value [7] was 197.32 ± 7.12 mg/dL. The “change in blood glucose after starch administration (AUC)” value ([8]; 3 mg/kg acarbose (A 3)) was 197.32 ± 7.12 mg/dL and the “blood glucose level at 30 min after starch administration” value ([8]; 3 mg/kg acarbose oral (A 3)) was 90.63 ± 3.80 mg/dL.
